Data taken from patent publication US10654818B2, “Furane derivatives as inhibitors of ATAD2” (BAYER PHARMA AKTIENGESELLSCHAFT, priority 2015, dated 2020).

Biological target: T1, recombinant, N-terminally GST-tagged ATAD2 bromodomain amino acids 981-1108 (Homo sapiens, UniProt Q6PL18)
T1 construct: ATAD2 bromodomain amino acids 981-1108; made in house; host or cells: E. coli
T1 sequence (Q6PL18 981-1108): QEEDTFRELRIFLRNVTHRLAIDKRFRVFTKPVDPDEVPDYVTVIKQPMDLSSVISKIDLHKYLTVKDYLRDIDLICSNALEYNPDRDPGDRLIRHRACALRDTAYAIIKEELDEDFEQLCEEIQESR
Experiment: TR-FRET assay: disruption of the interaction between ATAD2 and acetylated Histone H4 (Ac-H4) peptide
Assay type: binding
Settings: inhibition of ATAD2/Ac-H4 complex formation; 10 nM ATAD2, 50 nM Ac-H4 peptide
Excerpt: The ability of the compounds described in the present invention to disrupt the interaction between ATAD2 and acetylated Histone H4 (Ac-H4) was used as quantitative measure of their ATAD2-binding affinities.
To this end a TR-FRET assay which detects the binding of an Ac-H4-derived synthetic peptide (purchased from e.g. Biosyntan (Berlin, Germany)) of sequence HSGRGKGGGGKGLGK(Ac)GGAKRHRK-Biotin to recombinant, N-terminally GST-tagged ATAD2 bromodomain amino acids 981-1108. The protein was produced in-house via E. coli expression followed by GSH-Sepharose affinity- and Superdex S200-size exclusion chromatography purification.
Typically, 11 different concentrations of each compound (0.1 nM, 0.33 nM, 1.1 nM, 3.8 nM, 13 nM, 44 nM, 0.15 μM, 0.51 μM, 1.7 μM, 5.9 μM and 20 μM) were tested in duplicate within the same microtiter plate. To this end, 100-fold concentrated compound solutions (in DMSO) were previously prepared with a Precision Pippeting System (BioTek) by serial dilution (1:3.4) of 2 mM stocks in clear, low-volume 384-well microtiter source plates (Greiner Bio-One). Subsequently, 50 nl of compounds were transferred into black, low-volume test plates from the same supplier using a Hummingbird capillary based liquid handling instrument (Digilab). Tests were started by the addition of 2 μl of 2.5-fold concentrated ATAD2 solution (25 nM=10 nM final concentration in the 5 μl assay volume) in aqueous assay buffer [50 mM HEPES pH 7.5, 50 mM potassium fluoride (KF), 100 mM sodium chloride (NaCl), 0.25 mM CHAPS, 0.05% bovine serum albumine (BSA) and 1 mM dithiothreitol (DTT)] to the compounds in the test plate with a Multidrop dispenser (Thermo-Fisher). Test plates were then incubated 10′ at 22° C., in order to allow pre-equilibration of putative compound-ATAD2 complexes. Subsequently, 3 μl of a 1.67-fold concentrated solution containing Ac-H4 peptide (83.5 nM=50 nM final concentration) and TR-FRET detection reagents [16.7 nM Anti-GST-XL665 (Cisbio), =10 nM final concentration and 4.17 nM Lance EU W-1024 Streptavidin Europium Chelate (Perkin-Elmer)=2.5 nM final concentration were dispensed into the plates.
The mixture was further incubated in the dark for 1 hour at 22° C. Finally the inhibition of the formation of ATAD2/Ac-H4 complexes was assessed by measurement of the resonance energy transfer from the Streptavidin-Eu-Chelate to the anti-GST-XL665 antibody present in the reaction. To this end, the fluorescence emissions at 622 nm and 665 nm after excitation at 337 nm were measured in a TR-FRET reader, e.g. a Rubystar or Pherastar (both from BMG Lab Technologies) or a Viewlux (Perkin-Elmer) and the ratio of the emissions at 665 nm and at 622 nm was taken as indicator for the amount of ATAD2/Ac-H4 complexes in equilibrium.
The data were normalized using two sets of control wells (16 each). The first accounted for 100% ATAD2/Ac-H4 binding (0% inhibition), and contained all reaction components but DMSO instead of inhibitors. The second represented 0% ATAD2/Ac-H4 binding (100% inhibition), and included all assay components except ATAD2. IC50 values were calculated by fitting the normalized inhibition data to a 4-parameter logistic equation using either Screener software (Genedata) or a Bayer-proprietary analysis software.

Row | Structure (SMILES) | IC50 [nM]
1 | Cc1ccc([C@@H](C)NCc2ccc(-c3ccc(Cl)c(C(=O)N[C@H](Cc4ccc(C#N)cc4)c4ncn[nH]4)c3)o2)cc1 [Example 20, 2-chloro-N-[(1R)-2-(4-cyanophenyl)-1-(1H-1,2,4-triazol-5-yl)ethyl]-5-[5-({[(1R)-1-(4-methylphenyl)ethyl]amino}methyl)-2-furyl]benzamide] | 729
2 | Cc1ccc([C@@H](C)NCc2ccc(-c3ccc(Cl)c(C(=O)N[C@@H](CO)Cc4ccc(C(N)=O)cc4)c3)o2)cc1 [Example 48, N-[(2R)-1-(4-carbamoylphenyl)-3-hydroxypropan-2-yl]-2-chloro-5-[5-({[(1R)-1-(4-methylphenyl)ethyl]amino}methyl)-2-furyl]benzamide] | 1080
3 | Cc1ccc([C@@H](C)NCc2ccc(-c3ccc(Cl)c(C(=O)N[C@@H](CNCC(C)C)Cc4ccc(C#N)cc4)c3)o2)cc1 [Example 61] | 798
4 | Cc1ccc([C@@H](C)NCc2ccc(-c3ccc(Cl)c(C(=O)N[C@H]4CNCC[C@H]4c4ccc(C#N)cc4)c3)o2)cc1 (stereo in doubt) [Example 76, Cis-chloro-N-[4-(4-cyanophenyl)piperidin-3-yl]-5-[5-({[(1R)-1-(4-methylphenyl)-ethyl]amino}methyl)-2-furyl]benzamide] | 441
5 | Cc1ccc([C@@H](C)NCc2ccc(-c3ccc(Cl)c(C(=O)N[C@@H](CO)Cc4ccc(C#N)c(N)c4)c3)o2)cc1 [Example 40, N-[(2R)-1-(3-amino-4-cyanophenyl)-3-hydroxypropan-2-yl]-2-chloro-5-[5-({[(1R)-1-(4-methylphenyl)ethyl]amino}methyl)-2-furyl]benzamide] | 781
6 | Cc1ccc([C@@H](C)NCc2ccc(-c3ccc(Cl)c(C(=O)N[C@@H](CO)Cc4ccc(C#N)c(C)c4)c3)o2)cc1 [Example 37, 2-chloro-N-[(2R)-1-(4-cyano-3-methylphenyl)-3-hydroxypropan-2-yl]-5-[5-({[(1R)-1-(4-methylphenyl)ethyl]amino}methyl)-2-furyl]benzamide] | 443
7 | COC(=O)c1ccc(C[C@H](CO)NC(=O)c2cc(-c3ccc(CN[C@H](C)c4ccc(C)cc4)o3)ccc2Cl)cc1 [Example 51, methyl 4-[(2R)-2-({2-chloro-5-[5-({[(1R)-1-(4-methylphenyl)ethyl]amino}methyl)-2-furyl]benzoyl}amino)-3-hydroxypropyl]benzoate] | 810
8 | CNC(=O)C[C@@H](Cc1ccc(C#N)cc1)NC(=O)c1cc(-c2ccc(CNC(C)(C)c3ccc(C)cc3)o2)ccc1Cl [Example 94] | 2980
9 | Cc1ccc([C@@H](C)NCc2ccc(-c3ccc(Cl)c(C(=O)N[C@@H](CNS(C)(=O)=O)Cc4ccc(C#N)cc4)c3)o2)cc1 [Example 54, 2-chloro-N-{(2R)-1-(4-cyanophenyl)-3-[(methylsulfonyl)amino]propan-2-yl}-5-[5-({[(1R)-1-(4-methylphenyl)ethyl]amino}methyl)-2-furyl]benzamide] | 705
10 | Cc1ccc([C@@H](C)NCc2ccc(-c3ccc(Cl)c(C(=O)N[C@@H](CCO)Cc4ccc(C#N)cc4)c3)o2)cc1 [Example 13, 2-chloro-N-[(2R)-1-(4-cyanophenyl)-4-hydroxybutan-2-yl]-5-[5-({[(1R)-1-(4-methylphenyl)ethyl]amino}methyl)-2-furyl]benzamide] | 386
11 | Cc1ccc([C@@H](C)NCc2ccc(-c3ccc(Cl)c(C(=O)N[C@H](Cc4ccc(C#N)cc4)CN4CCN(C)CC4)c3)o2)cc1 [Example 21, 2-chloro-N-[(2R)-1-(4-cyanophenyl)-3-(4-methylpiperazin-1-yl)propan-2-yl]-5-[5-({[(1R)-1-(4-methylphenyl)ethyl]amino}methyl)-2-furyl]benzamide] | 580
12 | CNC(=O)C[C@@H](Cc1ccc(C#N)cc1)NC(=O)c1cc(-c2ccc(CNC(C)(C)c3ccccc3)o2)ccc1Cl [Example 93] | 7690
13 | Cc1ccc([C@@H](C)NCc2ccc(-c3ccc(Cl)c(C(=O)N[C@@H](CNC4CCN(Cc5ccccc5)CC4)Cc4ccc(C#N)cc4)c3)o2)cc1 [Example 59] | 625
